What was measured:
[1] = Total indole concentrations under various light, O2 and EMIQ conditions; type: physicochemical
Method: Synthetic R,R-monatin containing approximately 95.4% R,R-monatin monopotassium salt (dry basis) was obtained from CSIR (Modderfontein, South Africa). About 35 mg/L of this monatin was placed in a buffered solution at a pH of about 2.8-3.0 comprising 9 mM citric acid-trisodium citrate in high purity water and preserved with about 150 mg/L sodium benzoate. To some samples 200 ppm SANMELIN™ AO-3000 enzymatically modified isoquercitrin (EMIQ) (San-Ei Gen F.F.I.—Osaka, Japan) was added. Dissolved O2 levels were either increased by bubbling compressed air or reduced by bubbling N2 (99.9% purity) through these samples until the target O2 concentrations were achieved. Dissolved O2 levels were determined at 20° C. using a FOXY fluorescence quenching O2 analyzer from Ocean Optics (Dunedin, Fla.). Samples were stored in clear, glass ampules (˜10 mL) after O2 adjustment and heat-sealed to create an air-tight enclosure. The samples were then either stored in the dark, or exposed to light continuously (24 hours per day) in a light box (˜2200 lux light intensity) configured with a rotating carousel to provide even illumination. The source of light was provided by ultra-violet (UV) light wavelength transmitting bulbs and standard fluorescent bulbs. The heat produced by the lights warmed the samples to a temperature of about 28° C. Duplicate samples of each treatment were analyzed weekly for total indole concentrations via the following method.
(§1) Total indole (monatin and its intramolecular rearrangement products, monatin lactone and monatin lactam) concentrations were quantified by reversed phase HPLC at 40° C. using an Agilent Zorbax Eclipse C18 column with UV detection at 280 nm by PDA. The compounds were eluted by a gradient mobile phase consisting of (A) 1:1 methanol and acetonitrile (v:v) with 0.3% formic acid and 10 mM ammonium formate and (B) 0.3% formic acid in water with 10 mM ammonium formate. The integrated peak areas for the three (3) compounds were expressed in terms of monatin concentration (mg/L) based on a standard curve prepared for monatin. Thus, the extinction coefficient for monatin was applied to estimate concentrations of monatin lactone and monatin lactam since standards for these compounds were unavailable.

[2] = Total indole concentrations following sunlight exposure; type: physicochemical
Method: Synthetic R,R-monatin containing approximately 95.4% R,R-monatin monopotassium salt (dry basis) was obtained from CSIR (Modderfontein, South Africa). About 39 mg/L of this monatin was placed in a buffered solution at a pH of about 2.8-3.0 comprising 9 mM citric acid-trisodium citrate in high purity water and preserved with about 150 mg/L sodium benzoate. To some samples 200 ppm SANMELIN™ AO-3000 enzymatically modified isoquercitrin (EMIQ) (San-Ei Gen F.F.I.—Osaka, Japan) was added. Dissolved O2 levels were either increased by bubbling compressed air or reduced by bubbling N2 (99.9% purity) through these samples until the target O2 concentrations were achieved. Dissolved O2 levels were determined at 20° C. using a FOXY fluorescence quenching O2 analyzer from Ocean Optics (Dunedin, Fla.). Samples were stored in clear, glass ampules (˜10 mL) after O2 adjustment and heat-sealed to create an air-tight enclosure. The samples were then either stored in the dark, or exposed to sunlight. The exposure to sunlight is a much harsher environment for photosensitive compounds than the fluorescent light box because sunlight is many times brighter (˜100,000 Lux vs. ˜2200 Lux) and produces higher-energy, UV radiation. In order to test samples under these alternate conditions, samples were stored outside and exposed to sunlight where temperatures varied from about 5 to about 30 degrees C. and light intensity ranged from 0 at night to about 100,000 Lux on a clear day. Duplicate samples were analyzed weekly for total indole concentrations via the following method.
as §1

Total Indole Concentration ([1]; Light Exposure NO, O2 8.3 mg/L, EMIQ 0 ppm, 0 Days): 36.3 mg/L
Total Indole Concentration ([1]; Light Exposure NO, O2 8.3 mg/L, EMIQ 0 ppm, 7 Days): 36.5 mg/L
Total Indole Concentration ([1]; Light Exposure NO, O2 8.3 mg/L, EMIQ 0 ppm, 14 Days): 37.0 mg/L
Total Indole Concentration ([1]; Light Exposure NO, O2 8.3 mg/L, EMIQ 0 ppm, 21 Days): 41.0 mg/L
Total Indole Concentration ([1]; Light Exposure NO, O2 8.3 mg/L, EMIQ 0 ppm, 28 Days): 37.5 mg/L
Total Indole Concentration ([1]; Light Exposure NO, O2 8.3 mg/L, EMIQ 200 ppm, 0 Days): 35.5 mg/L
Total Indole Concentration ([1]; Light Exposure NO, O2 8.3 mg/L, EMIQ 200 ppm, 7 Days): 35.3 mg/L
Total Indole Concentration ([1]; Light Exposure NO, O2 8.3 mg/L, EMIQ 200 ppm, 14 Days): 43.3 mg/L
Total Indole Concentration ([1]; Light Exposure NO, O2 8.3 mg/L, EMIQ 200 ppm, 21 Days): 36.2 mg/L
Total Indole Concentration ([1]; Light Exposure NO, O2 8.3 mg/L, EMIQ 200 ppm, 28 Days): 33.5 mg/L
Total Indole Concentration ([1]; Light Exposure NO, O2 <0.5 mg/L, EMIQ 0 ppm, 0 Days): 34.7 mg/L
Total Indole Concentration ([1]; Light Exposure NO, O2 <0.5 mg/L, EMIQ 0 ppm, 7 Days): 32.8 mg/L
Total Indole Concentration ([1]; Light Exposure NO, O2 <0.5 mg/L, EMIQ 0 ppm, 14 Days): 34.4 mg/L
Total Indole Concentration ([1]; Light Exposure NO, O2 <0.5 mg/L, EMIQ 0 ppm, 21 Days): 32.8 mg/L
Total Indole Concentration ([1]; Light Exposure NO, O2 <0.5 mg/L, EMIQ 0 ppm, 28 Days): 35.2 mg/L
Total Indole Concentration ([1]; Light Exposure NO, O2 <0.5 mg/L, EMIQ 200 ppm, 0 Days): 34.7 mg/L
Total Indole Concentration ([1]; Light Exposure NO, O2 <0.5 mg/L, EMIQ 200 ppm, 7 Days): 32.8 mg/L
Total Indole Concentration ([1]; Light Exposure NO, O2 <0.5 mg/L, EMIQ 200 ppm, 14 Days): 34.4 mg/L
Total Indole Concentration ([1]; Light Exposure NO, O2 <0.5 mg/L, EMIQ 200 ppm, 21 Days): 32.8 mg/L
Total Indole Concentration ([1]; Light Exposure NO, O2 <0.5 mg/L, EMIQ 200 ppm, 28 Days): 35.2 mg/L
Total Indole Concentration ([1]; Light Exposure YES, O2 8.3 mg/L, EMIQ 0 ppm, 0 Days): 36.3 mg/L
Total Indole Concentration ([1]; Light Exposure YES, O2 8.3 mg/L, EMIQ 0 ppm, 7 Days): 15.3 mg/L
Total Indole Concentration ([1]; Light Exposure YES, O2 8.3 mg/L, EMIQ 0 ppm, 14 Days): 4.5 mg/L
Total Indole Concentration ([1]; Light Exposure YES, O2 8.3 mg/L, EMIQ 0 ppm, 21 Days): 0.0 mg/L
Total Indole Concentration ([1]; Light Exposure YES, O2 8.3 mg/L, EMIQ 0 ppm, 28 Days): 0.0 mg/L
Total Indole Concentration ([1]; Light Exposure YES, O2 8.3 mg/L, EMIQ 200 ppm, 0 Days): 34.7 mg/L
Total Indole Concentration ([1]; Light Exposure YES, O2 8.3 mg/L, EMIQ 200 ppm, 7 Days): 32.7 mg/L
Total Indole Concentration ([1]; Light Exposure YES, O2 8.3 mg/L, EMIQ 200 ppm, 14 Days): 28.4 mg/L
Total Indole Concentration ([1]; Light Exposure YES, O2 8.3 mg/L, EMIQ 200 ppm, 21 Days): 26.0 mg/L
Total Indole Concentration ([1]; Light Exposure YES, O2 8.3 mg/L, EMIQ 200 ppm, 28 Days): 22.5 mg/L
Total Indole Concentration ([1]; Light Exposure YES, O2 <0.5 mg/L, EMIQ 0 ppm, 0 Days): 36.3 mg/L
Total Indole Concentration ([1]; Light Exposure YES, O2 <0.5 mg/L, EMIQ 0 ppm, 7 Days): 35.9 mg/L
Total Indole Concentration ([1]; Light Exposure YES, O2 <0.5 mg/L, EMIQ 0 ppm, 14 Days): 36.0 mg/L
Total Indole Concentration ([1]; Light Exposure YES, O2 <0.5 mg/L, EMIQ 0 ppm, 21 Days): 38.8 mg/L
Total Indole Concentration ([1]; Light Exposure YES, O2 <0.5 mg/L, EMIQ 0 ppm, 28 Days): 34.6 mg/L
Total Indole Concentration ([1]; Light Exposure YES, O2 <0.5 mg/L, EMIQ 200 ppm, 0 Days): 34.7 mg/L
Total Indole Concentration ([1]; Light Exposure YES, O2 <0.5 mg/L, EMIQ 200 ppm, 7 Days): 35.8 mg/L
Total Indole Concentration ([1]; Light Exposure YES, O2 <0.5 mg/L, EMIQ 200 ppm, 14 Days): 33.9 mg/L
Total Indole Concentration ([1]; Light Exposure YES, O2 <0.5 mg/L, EMIQ 200 ppm, 21 Days): 35.1 mg/L
Total Indole Concentration ([1]; Light Exposure YES, O2 <0.5 mg/L, EMIQ 200 ppm, 28 Days): 29.3 mg/L
Total Indole Concentration ([2]; 8.3 mg/L O2, 0 ppm EMIQ, Dark, 0 d): 38.5 mg/L
Total Indole Concentration ([2]; 8.3 mg/L O2, 0 ppm EMIQ, Dark, 7 d): 39.4 mg/L
Total Indole Concentration ([2]; 8.3 mg/L O2, 0 ppm EMIQ, Dark, 14 d): 38.0 mg/L
Total Indole Concentration ([2]; 8.3 mg/L O2, 0 ppm EMIQ, Dark, 21 d): 36.9 mg/L
Total Indole Concentration ([2]; 8.3 mg/L O2, 0 ppm EMIQ, Dark, 28 d): 39.1 mg/L
Total Indole Concentration ([2]; 8.3 mg/L O2, 0 ppm EMIQ, Light (sunlight), 0 d): 38.5 mg/L
Total Indole Concentration ([2]; 8.3 mg/L O2, 0 ppm EMIQ, Light (sunlight), 7 d): 0.0 mg/L
Total Indole Concentration ([2]; 8.3 mg/L O2, 0 ppm EMIQ, Light (sunlight), 14 d): 0.0 mg/L
Total Indole Concentration ([2]; 8.3 mg/L O2, 0 ppm EMIQ, Light (sunlight), 21 d): 0.0 mg/L
Total Indole Concentration ([2]; 8.3 mg/L O2, 0 ppm EMIQ, Light (sunlight), 28 d): 0.0 mg/L
Total Indole Concentration ([2]; <0.5 mg/L O2, 0 ppm EMIQ, Light (sunlight), 0 d): 38.5 mg/L
Total Indole Concentration ([2]; <0.5 mg/L O2, 0 ppm EMIQ, Light (sunlight), 7 d): 39.7 mg/L
Total Indole Concentration ([2]; <0.5 mg/L O2, 0 ppm EMIQ, Light (sunlight), 14 d): 34.4 mg/L
Total Indole Concentration ([2]; <0.5 mg/L O2, 0 ppm EMIQ, Light (sunlight), 21 d): 32.0 mg/L
Total Indole Concentration ([2]; <0.5 mg/L O2, 0 ppm EMIQ, Light (sunlight), 28 d): 30.6 mg/L
Total Indole Concentration ([2]; <0.5 mg/L O2, 200 ppm EMIQ, Light (sunlight), 0 d): 38.5 mg/L
Total Indole Concentration ([2]; <0.5 mg/L O2, 200 ppm EMIQ, Light (sunlight), 7 d): 36.0 mg/L
Total Indole Concentration ([2]; <0.5 mg/L O2, 200 ppm EMIQ, Light (sunlight), 14 d): 38.4 mg/L
Total Indole Concentration ([2]; <0.5 mg/L O2, 200 ppm EMIQ, Light (sunlight), 21 d): 32.8 mg/L
Total Indole Concentration ([2]; <0.5 mg/L O2, 200 ppm EMIQ, Light (sunlight), 28 d): 36.7 mg/L
SMILES: NC(CC(O)(Cc1c[nH]c2ccccc12)C(=O)O)C(=O)O (stereo not drawn) [R,R-monatin, 2-hydroxy-2-(indol-3-ylmethyl)-4-aminoglutaric acid]

Source: US20120076899A1, “SHELF STABLE MONATIN SWEETENED BEVERAGE” (Cargill, Incorporated, priority 2009, published 2012)
